Measured values: BindingDB's records for doi:10.1021/jm020046y (National Institute of Diabetes, 2002)

What was measured:
[1] = molecular target: P2X purinoceptor 3 (Rattus norvegicus) (UniProt P49654); assay: The compound was evaluated for antagonist activity against recombinant rat P2X purinoceptor 3 (P2X3) at 10 uM,expressed in Xenopus oocytes
[2] = Dissociation constant at P2X purinoceptor 1 from guinea pig taenia coli
[3] = molecular target: P2X purinoceptor 3 (Rattus norvegicus) (UniProt P49654); assay: The compound was evaluated for antagonist activity against recombinant rat P2X purinoceptor 3 (P2X3) at 3 uM, expressed in Xenopus oocytes
[4] = The compound was evaluated for antagonist activity against recombinant rat P2X […] receptor 10 uM
[5] = molecular target: P2X purinoceptor 2 (Rattus norvegicus); assay: The compound was evaluated for antagonist activity against recombinant rat P2X purinoceptor 2 (P2X2) at 30 uM
[6] = Dissociative constant against P2Y purinoceptor (P2Y) was reported; range 10-214
[7] = molecular target: T1, P2X purinoceptor 7 (Rattus norvegicus, UniProt Q64663); assay: The compound was evaluated for antagonist activity against recombinant rat P2X purinoceptor 7 (P2X7)
T1 sequence (Q64663 whole entry): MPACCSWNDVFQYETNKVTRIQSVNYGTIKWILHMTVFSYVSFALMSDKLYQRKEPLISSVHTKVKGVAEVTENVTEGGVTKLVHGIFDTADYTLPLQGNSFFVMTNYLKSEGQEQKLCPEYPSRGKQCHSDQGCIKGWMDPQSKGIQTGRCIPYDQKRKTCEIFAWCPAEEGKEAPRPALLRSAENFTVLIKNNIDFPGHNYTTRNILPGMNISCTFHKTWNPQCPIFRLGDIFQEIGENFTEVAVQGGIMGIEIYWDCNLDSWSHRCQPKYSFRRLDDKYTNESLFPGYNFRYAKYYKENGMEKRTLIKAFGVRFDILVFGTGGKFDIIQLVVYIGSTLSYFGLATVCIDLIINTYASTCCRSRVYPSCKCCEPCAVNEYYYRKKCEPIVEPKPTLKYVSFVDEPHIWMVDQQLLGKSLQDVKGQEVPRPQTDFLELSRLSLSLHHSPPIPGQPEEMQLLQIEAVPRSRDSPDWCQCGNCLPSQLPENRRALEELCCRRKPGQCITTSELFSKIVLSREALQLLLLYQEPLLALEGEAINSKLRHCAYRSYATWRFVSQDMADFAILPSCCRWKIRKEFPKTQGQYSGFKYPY

[8] = molecular target: P2Y purinoceptor 1 (Meleagris gallopavo, UniProt P49652); assay: Evaluated for agonist activity against phospholipase C coupled P2Y purinoceptor 1 (P2Y1) of turkey erythrocytes
P2Y purinoceptor 1, sequence (P49652 whole entry): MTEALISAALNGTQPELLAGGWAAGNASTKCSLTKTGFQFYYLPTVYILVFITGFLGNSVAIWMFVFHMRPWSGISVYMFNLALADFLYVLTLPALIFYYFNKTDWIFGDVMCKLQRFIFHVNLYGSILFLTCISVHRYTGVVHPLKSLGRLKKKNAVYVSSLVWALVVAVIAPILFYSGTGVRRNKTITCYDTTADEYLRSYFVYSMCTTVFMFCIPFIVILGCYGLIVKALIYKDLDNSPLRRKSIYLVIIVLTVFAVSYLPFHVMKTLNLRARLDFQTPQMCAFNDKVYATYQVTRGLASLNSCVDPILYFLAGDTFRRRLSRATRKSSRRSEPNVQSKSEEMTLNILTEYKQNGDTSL

P2X purinoceptor 3 (Rattus norvegicus), sequence (P49654 whole entry, looked up): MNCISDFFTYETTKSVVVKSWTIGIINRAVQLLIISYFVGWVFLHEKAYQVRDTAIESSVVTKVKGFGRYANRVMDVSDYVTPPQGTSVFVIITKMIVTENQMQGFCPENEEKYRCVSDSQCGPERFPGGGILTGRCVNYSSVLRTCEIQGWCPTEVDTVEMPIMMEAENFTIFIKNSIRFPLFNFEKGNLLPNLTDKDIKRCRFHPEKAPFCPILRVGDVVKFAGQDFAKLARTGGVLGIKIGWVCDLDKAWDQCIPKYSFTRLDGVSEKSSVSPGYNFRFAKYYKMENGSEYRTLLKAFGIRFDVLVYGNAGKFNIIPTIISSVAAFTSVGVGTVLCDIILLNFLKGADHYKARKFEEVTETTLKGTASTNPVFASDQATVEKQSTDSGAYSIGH

Compound: CCCCCCSc1nc(N)c2ncn([C@@H]3O[C@H](COP(=O)(O)O)[C@@H](O)[C@H]3O)c2n1 [((2R,3S,4R,5R)-5-(6-amino-2-(hexylthio)-9H-purin-9-yl)-3,4-dihydroxytetrahydrofuran-2-yl)methyl dihydrogen phosphate]
- EC50 [1]: 350 nM

Compound: C=CS(=O)(=O)c1cccc(Nc2cc(S(=O)(=O)O)c(N)c3c2C(=O)c2ccccc2C3=O)c1 [Uniblue A]
- Kd [2]: 800 nM

Compound: Nc1ncnc2c1ncn2[C@@H]1O[C@H](CO[P@@](=O)(O)O[P@@](=O)(O)CP(=O)(O)O)[C@@H](O)[C@H]1O
- EC50 [3]: 9200 nM

Compound: O=c1[nH]cnc2c1ncn2[C@@H]1O[C@H](COP(=O)(O)OP(=O)(O)OP(=O)(O)OP(=O)(O)OP(=O)(O)OC[C@H]2O[C@@H](n3cnc4c(=O)[nH]cnc43)[C@H](O)[C@@H]2O)[C@@H](O)[C@H]1O [Ip5I]
- IC50 [4]: 2800 nM
- IC50 [5]: > 30000 nM

Compound: O=S(=O)(O)c1cc(N=C=S)ccc1/C=C/c1ccc(N=C=S)cc1S(=O)(=O)O [DIDS]
- Kd [6]: 10000 nM

Compound: Nc1ccc(CCSc2nc(N)c3ncn([C@@H]4O[C@H](COP(=O)(O)OP(=O)(O)OP(=O)(O)O)[C@@H](O)[C@H]4O)c3n2)cc1 [PAPET-ATP]
- EC50 [1]: 17 nM

Compound: CCOc1ccc(Nc2ccc([C+](c3ccc(N(CC)Cc4cccc(S(=O)(=O)[O-])c4)cc3C)c3ccc(N(CC)Cc4cccc(S(=O)(=O)O)c4)cc3C)cc2)cc1 [Brilliant Blue]
- EC50 [7]: 400 nM
- EC50 [8]: 0.1 nM
